System: mouse peritoneal macrophages
Assay: Foam cell formation in peritoneal macrophages isolated from exposed C57BL/6 mice
Type: in vivo
Settings: 200 mg/kg BW for 7 d, p<0.05
Method: RAW264.7 cells or mouse peritoneal macrophages were plated in 24-well plates at 6.0×10^4 cells/well and grown overnight. Then the medium was removed and fresh DMEM-F12 containing 10% FBS, 20μg/mL oxidized low-density lipoprotein (ox-LDL), and 0.1% DMSO (control; n=3 ) or TPHP at the concentration of 1–20,000 nM ( n=3 per group) was added. The cells were washed with PBS, followed by fixing in 4% paraformaldehyde for 30 min and staining with boron-dipyrromethene (BODIPY) 493/503 ( 20μg/mL ) and 4′,6-diamidino-2-phenylindole (DAPI; 100 ng/mL ) for 10 min. Foam cell formation was analyzed by high-content microscopy using ImageXpress® Micro XL (Molecular Devices). From each well, 25 image fields were scanned, and MetaXpress® (Molecular Devices) was used to quantify compartmentalized changes in the fluorescence of each cell.
All experiments related to animals were approved by the institutional animal care and use committee of Peking University and followed the guidelines for animal experiments of the university as well as for experimental animals in China. […] Body weight (BW) was measured every week during the dosing period. […] Considering that this study assessed the effects of short-term exposure to TPHP, whereas humans are exposed to TPHP over a lifelong period, the present study used exposure doses that were higher than that of human exposure from house dust. […]

## O=P(Oc1ccccc1)(Oc1ccccc1)Oc1ccccc1 [TPHP, triphenyl phosphate]
  Foam cell staining in peritoneal macrophages relative to control: 2.88±0.95 fold

Reference: PMC6927504, “Screening of House Dust from Chinese Homes for Chemicals with Liver X Receptors Binding Activities and Characterization of Atherosclerotic Activity Using an in Vitro Macrophage Cell Line and ApoE^−/− Mice” (Environmental Health Perspectives, 2019)
